From patent US9062046B2, “Substituted imidazoquinoline derivatives as kinase inhibitors” (Piramal Enterprises Limited, priority 2011, dated 2015)

Key:
PC3 (prostate cell line) = experiment: Cytotoxicity assay (propidium iodide assay), PC3; format: cell-based; settings: Homo sapiens, PC-3, PC3 cells, 48 h treatment
Description: (§1) The assay was designed as in the reference, Anticancer Drugs, 2002, 13, 1-8, the disclosure of which is incorporated by reference for the teaching of the assay.
(§2) Cells from cell lines A2780 (ovarian cell line) and PC3 (prostate cell line) (both from ATCC) were seeded at a density of 3000 cells/well in a white opaque 96-well plate. Following incubation at 37° C./5% CO2 for a period of 18-24 h, the cells were treated with various concentrations (stock solution was prepared in DMSO and subsequent dilutions were made in media as per ATCC guidelines) of the test compounds for a period of 48 h. At the end of treatment, the culture medium was discarded, the cells were washed with 1×PBS and 200 μl of 7 μg/ml propidium iodide was added to each well. The plates were frozen at −70° C. overnight. For analysis, the plates were warmed to RT, allowed to thaw and were read in PoleStar fluorimeter with the fluorescence setting. The percentage of viable cells in the non-treated set of wells was considered to be 100 and the percentage viability following treatment was calculated accordingly. IC50 values were calculated from graphs plotted using these percentages.

[1] = tested on: A2780 (ovarian cell line); experiment: Cytotoxicity assay (propidium iodide assay), A2780; format: cell-based; settings: Homo sapiens, A2780 cells, 48 h treatment
Description: as §1, §2

Q: Which inhibition at 1 µM (PC3 (prostate cell line)) does the source give for `COc1ccc(-n2c(=NC#N)n(C)c3cnc4ccc(-c5cccnc5C)cc4c32)cn1` [Example 45, N-(1-(6-methoxypyridin-3-yl)-3-methyl-8-(2-methylpyridin-3-yl)-1H-imidazo[4,5-c]quinolin-2(3H)-ylidene)cyanamide] here?
A: Its inhibition at 1 µM is under 30%.

Q: What about the inhibition at 1 µM [1] of the same compound?
A: Its inhibition at 1 µM is 30 to 70%.

Q: For `COc1ccc(-n2c(=NC#N)n(C)c3cnc4ccc(-c5ccc(O)cc5)cc4c32)cn1` [Example 46, N-(8-(4-hydroxyphenyl)-1-(6-methoxypyridin-3-yl)-3-methyl-1H-imidazo[4,5-c]quinolin-2(3H)-ylidene)cyanamide], which inhibition at 1 µM (PC3 (prostate cell line)) is on record?
A: The inhibition at 1 µM was 30 to 70%.

Q: And the inhibition at 1 µM [1]?
A: Its inhibition at 1 µM is at least 70%.

Q: Which inhibition at 1 µM (PC3 (prostate cell line)) does the source give for `COc1ccc(-n2c(=NC#N)n(C)c3cnc4ccc(-c5cc(F)ccc5OC)cc4c32)cn1` [Example 47, N-(8-(5-fluoro-2-methoxyphenyl)-1-(6-methoxypyridin-3-yl)-3-methyl-1H-imidazo[4,5-c]quinolin-2(3H)-ylidene)cyanamide] here?
A: Its inhibition at 1 µM is under 30%.

Q: And the inhibition at 1 µM [1]?
A: The inhibition at 1 µM was under 30%.

Q: For `COc1ccc(-c2ccc3ncc4c(c3c2)n(-c2ccc(OC)nc2)c(=NC#N)n4C)cn1` [Example 48, N-(1,8-bis(6-methoxypyridin-3-yl)-3-methyl-1H-imidazo[4,5-c]quinolin-2(3H)-ylidene)cyanamide], which inhibition at 1 µM (PC3 (prostate cell line)) is on record?
A: The inhibition at 1 µM was 30 to 70%.

Q: And the inhibition at 1 µM [1]?
A: Its inhibition at 1 µM is at least 70%.

Q: What does the source list for `COc1ccc(-n2c(=NC#N)n(C)c3cnc4ccc(-c5ccccc5OC)cc4c32)cn1` [Example 49, N-(8-(2-methoxyphenyl)-1-(6-methoxypyridin-3-yl)-3-methyl-1H-imidazo[4,5-c]quinolin-2(3H)-ylidene)cyanamide]?
A: inhibition at 1 µM (PC3 (prostate cell line)): < 30%; inhibition at 1 µM [1]: 30 to 70%

Q: With `Cn1c(=NC#N)n(-c2ccc(C(C)(C)C#N)nc2)c2c3cc(-c4ccc(O)cc4)ccc3ncc21` [Example 50, N-(1-(6-(2-cyanopropan-2-yl)pyridin-3-yl)-8-(4-hydroxyphenyl)-3-methyl-1H-imidazo[4,5-c]quinolin-2(3H)-ylidene)cyanamide] as the compound, how does the inhibition at 1 µM (PC3 (prostate cell line)) read?
A: The inhibition at 1 µM was 30 to 70%.

Q: And the inhibition at 1 µM [1]?
A: The inhibition at 1 µM was at least 70%.

Q: For `COc1ccc(-c2ccc3ncc4c(c3c2)n(-c2ccc(C(C)(C)C#N)nc2)c(=NC#N)n4C)cn1` [Example 51, N-(1-(6-(2-cyanopropan-2-yl)pyridin-3-yl)-8-(6-methoxypyridin-3-yl)-3-methyl-1H-imidazo[4,5-c]quinolin-2(3H)-ylidene)cyanamide], which inhibition at 1 µM (PC3 (prostate cell line)) is on record?
A: Its inhibition at 1 µM is 30 to 70%.

Q: What about the inhibition at 1 µM [1] of the same compound?
A: The inhibition at 1 µM was at least 70%.

Q: How did the inhibition at 1 µM (PC3 (prostate cell line)) turn out when `COc1ccc(F)cc1-c1ccc2ncc3c(c2c1)n(-c1ccc(C(C)(C)C#N)nc1)c(=NC#N)n3C` [Example 52, N-(1-(6-(2-cyanopropan-2-yl)pyridin-3-yl)-8-(5-fluoro-2-methoxyphenyl)-3-methyl-1H-imidazo[4,5-c]quinolin-2(3H)-ylidene)cyanamide] was run?
A: Its inhibition at 1 µM is under 30%.

Q: And the inhibition at 1 µM [1]?
A: The inhibition at 1 µM was under 30%.

Q: For `COc1ccccc1-c1ccc2ncc3c(c2c1)n(-c1ccc(C(C)(C)C#N)nc1)c(=NC#N)n3C` [Example 53, N-(1-(6-(2-cyanopropan-2-yl)pyridin-3-yl)-8-(2-methoxyphenyl)-3-methyl-1H-imidazo[4,5-c]quinolin-2(3H)-ylidene)cyanamide], which inhibition at 1 µM (PC3 (prostate cell line)) is on record?
A: Its inhibition at 1 µM is under 30%.

Q: What about the inhibition at 1 µM [1] of the same compound?
A: Its inhibition at 1 µM is 30 to 70%.

Q: How did the inhibition at 1 µM (PC3 (prostate cell line)) turn out when `Cn1c(=NC#N)n(-c2ccc(C(C)(C)C#N)nc2)c2c3cc(-c4ccc5c(c4)OCO5)ccc3ncc21` [Example 54, N-(8-(benzo[d][1,3]dioxol-5-yl)-1-(6-(2-cyanopropan-2-yl)pyridin-3-yl)-3-methyl-1H-imidazo[4,5-c]quinolin-2(3H)-ylidene)cyanamide] was run?
A: Its inhibition at 1 µM is under 30%.

Q: What about the inhibition at 1 µM [1] of the same compound?
A: The inhibition at 1 µM was 30 to 70%.

Q: What does the source list for `COc1ncc(-c2ccc3ncc4c(c3c2)n(-c2ccc(C(C)(C)C#N)nc2)c(=NC#N)n4C)c(OC)n1` [Example 55, N-(1-(6-(2-cyanopropan-2-yl)pyridin-3-yl)-8-(2,4-dimethoxypyrimidin-5-yl)-3-methyl-1H-imidazo[4,5-c]quinolin-2(3H)-ylidene)cyanamide]?
A: inhibition at 1 µM (PC3 (prostate cell line)): 30 to 70%; inhibition at 1 µM [1]: ≥ 70%

Q: With `Cn1c(=NC#N)n(-c2ccc(C(C)(C)C#N)nc2)c2c3cc(-c4ccc5ncccc5c4)ccc3ncc21` [Example 56, N-(1-(6-(2-cyanopropan-2-yl)pyridin-3-yl)-3-methyl-8-(quinolin-6-yl)-1H-imidazo[4,5-c]quinolin-2(3H)-ylidene)cyanamide] as the compound, how does the inhibition at 1 µM (PC3 (prostate cell line)) read?
A: Its inhibition at 1 µM is 30 to 70%.

Q: What about the inhibition at 1 µM [1] of the same compound?
A: Its inhibition at 1 µM is at least 70%.

Q: With `COc1cc(-c2ccc3ncc4c(c3c2)n(-c2ccc(C(C)(C)C#N)nc2)c(=NC#N)n4C)cc(OC)c1OC` [Example 57, N-(1-(6-(2-cyanopropan-2-yl)pyridin-3-yl)-3-methyl-8-(3,4,5-trimethoxyphenyl)-1H-imidazo[4,5-c]quinolin-2(3H)-ylidene)cyanamide] as the compound, how does the inhibition at 1 µM (PC3 (prostate cell line)) read?
A: Its inhibition at 1 µM is 30 to 70%.

Q: And the inhibition at 1 µM [1]?
A: Its inhibition at 1 µM is at least 70%.

Q: For `Cn1c(=NC#N)n(-c2ccc(C(C)(C)C#N)nc2)c2c3cc(-c4ccc5ccccc5c4)ccc3ncc21` [Example 62, N-(1-(6-(2-cyanopropan-2-yl)pyridin-3-yl)-3-methyl-8-(naphthalen-2-yl)-1H-imidazo[4,5-c]quinolin-2(3H)-ylidene)cyanamide], which inhibition at 1 µM (PC3 (prostate cell line)) is on record?
A: Its inhibition at 1 µM is 30 to 70%.

Q: What about the inhibition at 1 µM [1] of the same compound?
A: Its inhibition at 1 µM is 30 to 70%.

Q: How did the inhibition at 1 µM (PC3 (prostate cell line)) turn out when `Cn1c(=NC#N)n(-c2ccc(C(C)(C)C#N)nc2)c2c3cc(-c4cc(F)cc(F)c4)ccc3ncc21` [Example 63, N-(1-(6-(2-cyanopropan-2-yl)pyridin-3-yl)-8-(3,5-difluorophenyl)-3-methyl-1H-imidazo[4,5-c]quinolin-2(3H)-ylidene)cyanamide] was run?
A: Its inhibition at 1 µM is under 30%.

Q: And the inhibition at 1 µM [1]?
A: Its inhibition at 1 µM is 30 to 70%.

Q: `Cn1c(=NC#N)n(-c2ccc(C(C)(C)C#N)nc2)c2c3cc(-c4cccnc4F)ccc3ncc21` [Example 64, N-(1-(6-(2-cyanopropan-2-yl)pyridin-3-yl)-8-(2-fluoropyridin-3-yl)-3-methyl-1H-imidazo[4,5-c]quinolin-2(3H)-ylidene)cyanamide] was tested. Which inhibition at 1 µM (PC3 (prostate cell line)) did it give?
A: The inhibition at 1 µM was under 30%.

Q: And the inhibition at 1 µM [1]?
A: The inhibition at 1 µM was 30 to 70%.

Q: What does the source list for `CC(C)Oc1ccccc1-c1ccc2ncc3c(c2c1)n(-c1ccc(C(C)(C)C#N)nc1)c(=NC#N)n3C` [Example 65, N-(1-(6-(2-cyanopropan-2-yl)pyridin-3-yl)-8-(2-isopropoxyphenyl)-3-methyl-1H-imidazo[4,5-c]quinolin-2(3H)-ylidene)cyanamide]?
A: inhibition at 1 µM (PC3 (prostate cell line)): < 30%; inhibition at 1 µM [1]: < 30%

Q: For `COc1ccc(-c2ccc3ncc4c(c3c2)n(-c2ccc(C(C)(C)C#N)nc2)c(=NC#N)n4C)cc1OC` [Example 66, N-(1-(6-(2-cyanopropan-2-yl)pyridin-3-yl)-8-(3,4-dimethoxyphenyl)-3-methyl-1H-imidazo[4,5-c]quinolin-2(3H)-ylidene)cyanamide], which inhibition at 1 µM (PC3 (prostate cell line)) is on record?
A: The inhibition at 1 µM was at least 70%.

Q: And the inhibition at 1 µM [1]?
A: Its inhibition at 1 µM is at least 70%.

Q: Which inhibition at 1 µM (PC3 (prostate cell line)) does the source give for `Cc1ccc(-c2ccc3ncc4c(c3c2)n(-c2ccc(C(C)(C)C#N)nc2)c(=NC#N)n4C)cc1` [Example 67, N-(1-(6-(2-cyanopropan-2-yl)pyridin-3-yl)-3-methyl-8-p-tolyl-1H-imidazo[4,5-c]quinolin-2(3H)-ylidene)cyanamide] here?
A: Its inhibition at 1 µM is 30 to 70%.

Q: What about the inhibition at 1 µM [1] of the same compound?
A: Its inhibition at 1 µM is 30 to 70%.

Q: `Cn1c(=NC#N)n(-c2ccc(C(C)(C)C#N)nc2)c2c3cc(-c4ccc(C(F)(F)F)cc4)ccc3ncc21` [Example 68, N-(1-(6-(2-cyanopropan-2-yl)pyridin-3-yl)-3-methyl-8-(4-(trifluoromethyl)phenyl)-1H-imidazo[4,5-c]quinolin-2(3H)-ylidene)cyanamide] was tested. Which inhibition at 1 µM (PC3 (prostate cell line)) did it give?
A: The inhibition at 1 µM was under 30%.

Q: What about the inhibition at 1 µM [1] of the same compound?
A: The inhibition at 1 µM was 30 to 70%.

Q: What does the source list for `Cn1c(=NC#N)n(-c2ccc(C(C)(C)C#N)nc2)c2c3cc(-c4cccc(C(F)(F)F)c4)ccc3ncc21` [Example 69, N-(1-(6-(2-cyanopropan-2-yl)pyridin-3-yl)-3-methyl-8-(3-(trifluoromethyl)phenyl)-1H-imidazo[4,5-c]quinolin-2(3H)-ylidene)cyanamide]?
A: inhibition at 1 µM (PC3 (prostate cell line)): 30 to 70%; inhibition at 1 µM [1]: ≥ 70%

Q: For `Cn1c(=NC#N)n(-c2ccc(C(C)(C)C#N)nc2)c2c3cc(-c4cncc(CNC(=O)OC(C)(C)C)c4)ccc3ncc21` [Example 71, tert-butyl (5-(2-(cyanoimino)-1-(6-(2-cyanopropan-2-yl)pyridin-3-yl)-3-methyl-2,3-dihydro-1H-imidazo[4,5-c]quinolin-8-yl)pyridin-3-yl)methylcarbamate], which inhibition at 1 µM (PC3 (prostate cell line)) is on record?
A: Its inhibition at 1 µM is under 30%.

Q: What about the inhibition at 1 µM [1] of the same compound?
A: Its inhibition at 1 µM is under 30%.

Q: How did the inhibition at 1 µM (PC3 (prostate cell line)) turn out when `Cn1c(=NC#N)n(-c2ccc(C(C)(C)C#N)nc2)c2c3cc(-c4ccc(N5CCN(C(=O)OC(C)(C)C)CC5)nc4)ccc3ncc21` [Example 72, tert-butyl 4-(5-(2-(cyanoimino)-1-(6-(2-cyanopropan-2-yl)pyridin-3-yl)-3-methyl-2,3-dihydro-1H-imidazo[4,5-c]quinolin-8-yl)pyridin-2-yl)piperazine-1-carboxylate] was run?
A: Its inhibition at 1 µM is under 30%.

Q: What about the inhibition at 1 µM [1] of the same compound?
A: Its inhibition at 1 µM is under 30%.

Q: Which inhibition at 1 µM (PC3 (prostate cell line)) does the source give for `Cn1c(=NC#N)n(-c2ccc(C(C)(C)C#N)nc2)c2c3cc(-c4ccc(F)cc4)ccc3ncc21` [Example 80, N-(1-(6-(2-cyanopropan-2-yl)pyridin-3-yl)-8-(4-fluorophenyl)-3-methyl-1H-imidazo[4,5-c]quinolin-2(3H)-ylidene)cyanamide] here?
A: The inhibition at 1 µM was 30 to 70%.

Q: What about the inhibition at 1 µM [1] of the same compound?
A: Its inhibition at 1 µM is at least 70%.

Q: `Cn1c(=NC#N)n(-c2ccc(C(C)(C)C#N)nc2)c2c3cc(-c4ccncc4)ccc3ncc21` [Example 81, N-(1-(6-(2-cyanopropan-2-yl)pyridin-3-yl)-3-methyl-8-(pyridin-4-yl)-1H-imidazo[4,5-c]quinolin-2(3H)-ylidene)cyanamide] was tested. Which IC50 (PC3 (prostate cell line)) did it give?
A: The IC50 was at most 0.5 µM.

Q: And the IC50 [1]?
A: Its IC50 is at most 0.5 µM.
